The record followed here is ChEMBL document CHEMBL5537143, “Synthesis and antimicrobial properties of guanidine-functionalized labdane type diterpenoids” (Eur J Med Chem, 2024).

Format in all cases: functional
For assay [1], the system named is Staphylococcus aureus. Kind of assay: Antimicrobial activity against Staphylococcus aureus ATCC 29213 assessed as inhibition of microbial growth incubated for 24 hrs by broth-microdilution assay. As to conditions: for MIC: Staphylococcus aureus, ATCC 29213, read-out: MIC100. On the technique in general: Broth dilution looks for growth in wells or tubes with falling amounts of substance.

Assay [2] has as its system Pseudomonas aeruginosa. Kind of assay: Antimicrobial activity against Pseudomonas aeruginosa ATCC 27853 assessed as inhibition of microbial growth incubated for 24 hrs by broth-microdilution assay. As to conditions: Pseudomonas aeruginosa, ATCC 27853, read-out: MIC100.
The test system of assay [3] is Candida albicans. Kind of assay: Antifungal activity against Candida albicans ATCC 90028 assessed as reduction in fungal growth incubated for 48 hrs by CLSI based analysis. As to conditions: read-out: MIC100.
Assay [4] concerns Staphylococcus aureus. Kind of assay: Antimicrobial activity against Staphylococcus aureus ATCC 43300 assessed as inhibition of microbial growth incubated for 24 hrs by broth-microdilution assay. As to conditions: for MIC: Staphylococcus aureus, ATCC 43300, read-out: MIC100.
In assay [5] the test system is Staphylococcus epidermidis. Description: Antimicrobial activity against Staphylococcus epidermidis ATCC 35984 assessed as inhibition of microbial growth incubated for 24 hrs by broth-microdilution assay. As to conditions: for MIC: Staphylococcus epidermidis, ATCC 35984, read-out: MIC100.
The test system of assay [6] is Candida albicans. Description: Antifungal activity against Candida albicans ATCC 10231 assessed as reduction in fungal growth incubated for 48 hrs by CLSI based analysis. As to conditions: read-out: MIC100.
Assay [7] relates to Staphylococcus epidermidis. Kind of assay: Antimicrobial activity against Staphylococcus epidermidis ATCC 12228 assessed as inhibition of microbial growth incubated for 24 hrs by broth-microdilution assay. As to conditions: for MIC: Staphylococcus epidermidis, ATCC 12228, read-out: MIC100.
Assay [8] relates to Pseudomonas aeruginosa. Description: Antimicrobial activity against Pseudomonas aeruginosa PAO1 assessed as inhibition of microbial growth incubated for 24 hrs by broth-microdilution assay. As to conditions: Pseudomonas aeruginosa, PAO1, read-out: MIC100.
The test system of assay [9] is Klebsiella pneumoniae. Kind of assay: Antimicrobial activity against Klebsiella pneumoniae ATCC BAA1705 assessed as inhibition of microbial growth incubated for 24 hrs by broth-microdilution assay. As to conditions: read-out: MIC100.
In assay [10] the test system is Klebsiella pneumoniae. Kind of assay: Antimicrobial activity against Klebsiella pneumoniae ATCC 13883 assessed as inhibition of microbial growth incubated for 24 hrs by broth-microdilution assay. As to conditions: read-out: MIC100.
In assay [11] the test system is Staphylococcus aureus. Description: Antimicrobial activity against methicillin resistant Staphylococcus aureus 43300 assessed as inhibition of microbial growth incubated for 24 hrs by broth-microdilution assay. As to conditions: read-out: MIC100.

≈ marks a conversion by molar mass, not a printed value.

As for `CC1(C)CCC[C@]2(C)[C@H]3CC[C@@](C)(CC(=O)O)O[C@]3(C)CC[C@@H]12`, the MIC is greater than 128 µg/mL in assay [1]; greater than 128 µg/mL in [2]; greater than 128 µg/mL in assay [3]; greater than 128 µg/mL in [4]; 128 µg/mL in assay [5]; greater than 128 µg/mL in assay [6]. In addition, the MIC was 128 µg/mL in [7], greater than 128 µg/mL in assay [8], greater than 128 µg/mL in [9] and greater than 128 µg/mL in assay [10].

For the compound `C[C@@H]1[C@H](O)[C@@H](C)/C=C/C=C/C=C/C=C/C=C/C=C/C=C/[C@H](O[C@@H]2O[C@H](C)[C@@H](O)[C@H](N)[C@@H]2O)C[C@@H]2O[C@](O)(C[C@@H](O)C[C@@H](O)[C@H](O)CC[C@@H](O)C[C@@H](O)CC(=O)O[C@H]1C)C[C@H](O)[C@H]2C(=O)O` [AMPHOTERICIN B], the MIC in assay [3] and in assay [6] was 4 µg/mL (≈ 4.33 µM) in each case.

On to `CC1(C)CCC[C@]2(C)[C@H]3CC[C@](C)(CC(=O)O)O[C@]3(C)CC[C@@H]12`, for which the MIC70 in assay [1], in assay [4], in assay [5] and in [7] was 64 µg/mL throughout. The MIC in assay [2], in [3], in assay [6], in assay [8], in [9] and in assay [10] was greater than 128 µg/mL each time.

As to `NC[C@H]1O[C@H](O[C@H]2[C@H](O)[C@@H](O[C@H]3O[C@H](CO)[C@@H](O)[C@H](N)[C@H]3O)[C@H](N)C[C@@H]2N)[C@H](N)C[C@@H]1O` [TOBRAMYCIN], the MIC in assay [2], in assay [8] and in assay [10] was 2 µg/mL each time.

Consider `Cc1onc(-c2ccccc2)c1C(=O)N[C@@H]1C(=O)N2[C@@H]1SC(C)(C)[C@@H]2C(=O)O` [OXACILLIN], for which the MIC in assay [1] stood at 2 µg/mL; in assay [4], 2 µg/mL; in assay [5], 2 µg/mL; in assay [7], 2 µg/mL; in [11], 10 µg/mL.

In the case of `C[C@@H](O)[C@H]1C(=O)N2C(C(=O)O)=C(SCCNC=N)C[C@H]12` [IMIPENEM ANHYDROUS], in [9], the MIC is no less than 4 µg/mL.
